Experimental data: patent EP0043274A2, “Antithrombotic treatment” (priority 1980, dated 1982)
“And” between values parts separate entries of the source, which are not always exact repeats. Equal entries are not always repeated. Structures can show the parent of a compound that is named as a salt. Where two headings read alike, the source gives them in different places.

How the values were obtained:
human plasma [1] = type: biochemical; details: for PTT(seconds) Exp. 2 A: Active Agent 0.5/ml, test sequences A and B, control 50.5 (A), 44.5 (B)
human plasma [2] = type: biochemical
[3] = amine bisulfites, control plasma 37.5 / 38.2
[4] = amine bisulfites, control plasma 37.8 / 39.2
[5] = amine bisulfites, control plasma 12.8 / 13.1
[6] = amine bisulfites, control plasma 13.1 / 13.0
[7] = coded agents 0.5mg/ml, […], control 43.38
[8] = coded agents 0.5mg/ml, […], control 12.92
[9] = 0.5 mg/ml, two different days, control 42.6 / 42.10
[10] = 0.5 mg/ml, two different days, control 13.40
[11] = amine hydrochlorides, control plasma 31.2
[12] = amine hydrochlorides, control plasma 31.3
[13] = amine hydrochlorides, control plasma 12.5
[14] = amine hydrochlorides, control plasma 13.0
[15] = in vitro, concentration not given
[16] = amine hydrochlorides, control plasma 13.5

Compound: CC(C)=O [acetone, reference compound]
- PTT (effect in words) (human plasma [1]; in vitro, 0.5 mg/ml): minimal effect
- PT (effect in words) (human plasma [2]; in vitro, 0.5 mg/ml): minimal effect

Compound: CCN(CC)CC.Cl [TRIETHYLAMINE HYDROCHLORIDE, reference compound]
- PTT 1 (human plasma [1]): 32.0
- PTT 2 (human plasma [1]): 31.5
- PTT 3 (human plasma [1]): 34.5
- PT 1 (human plasma [2]): 12.8
- PT 2 (human plasma [2]): 12.7
- PT 3 (human plasma [2]): 13.5

Compound: CC(C)(C)N [TERT-BUTYL AMINE]
- PTT REPLICATIONS 2 (human plasma [1]): 68.9
- PTT REPLICATIONS 1 (human plasma [1]; [3]): 68.2
- PTT REPLICATIONS 3 (human plasma [1]; [4]): 69.0
- PT REPLICATIONS 1 (human plasma [2]; [5]): 21.7
- PT REPLICATIONS 2 (human plasma [2]; [5]): 21.8
- PT REPLICATIONS 3 (human plasma [2]; [6]): 21.8

Compound: c1ccncc1 [PYRIDINE]
- PTT REPLICATIONS 1 (human plasma [1]): 80.0
- PTT REPLICATIONS 2 (human plasma [1]): 71.1
- PTT REPLICATIONS 3 (human plasma [1]): 59.3
- PT REPLICATIONS 1 (human plasma [2]): 29.3
- PT REPLICATIONS 2 (human plasma [2]): 27.8
- PT REPLICATIONS 3 (human plasma [2]): 27.2

Compound: O=C(O)/C(O)=C(/O)C(=O)O [Example A3, Dihydroxymaleic acid 2 H2O, reference compound]
- PTT (human plasma [1]; [7]): 53.00 s
- PT (human plasma [2]; [8]): 14.95 s

Compound: NCCO [ETHANOL AMINE]
- PTT REPLICATIONS 2 (human plasma [1]): 66.1
- PTT REPLICATIONS 1 (human plasma [1]; [3]): 65.3
- PTT REPLICATIONS 3 (human plasma [1]; [4]): 61.1
- PT REPLICATIONS 1 (human plasma [2]; [5]): 19.3
- PT REPLICATIONS 2 (human plasma [2]; [5]): 20.5
- PT REPLICATIONS 3 (human plasma [2]; [6]): 18.4

Compound: Na-hydrosulfite [reference compound]
- PTT sec (human plasma [1]; [9]): 45.2 (39.0) sec
- PT (human plasma [2]; [10]): 14.4 s

Compound: cyclohexane [reference compound]
- PTT (effect in words) (human plasma [1]; in vitro, 0.5 mg/ml): minimal effect
- PT (effect in words) (human plasma [2]; in vitro, 0.5 mg/ml): minimal effect

Compound: O=S([O-])S(=O)(=O)[O-].[K+].[K+] [Potassium Metabisulfite]
- PTT(seconds) Exp. 1 A (human plasma [1]): 77.6 s and 91.6 s
- PTT (human plasma [1]; [9]): 80.60 s
- PTT(seconds) Exp. 2 A (human plasma [1]): 111.3 s and 105.2 s
- PTT (human plasma [1]; [7]): 83.84 s
- PT (human plasma [2]): 18.76 s
- PT(seconds) Exp. 1 A (human plasma [2]): 18.3 s and 20.4 s
- PT(seconds) Exp. 2 A (human plasma [2]): 22.0 s
- PT (human plasma [2]; [8]): 19.34 s

Compound: C[N+](C)(C)C [Tetramethyl Ammonium Bromide, reference compound]
- PTT sec (human plasma [1]; 0.5 mg/ml, human plasma, control 38.1): 38.5 s
- PTT (effect in words) (human plasma [1]; in vitro, 0.5 mg/ml): little or no effect
- PT sec. (human plasma [2]): 12.5 s
- PT (effect in words) (human plasma [2]; in vitro, 0.5 mg/ml): little or no effect

Compound: Sodium Sulfite
- PTT(seconds) Exp. 1 A (human plasma [1]): 74.8 s and 66.1 s
- PTT (human plasma [1]; [9]): 66.53 s
- PTT(seconds) Exp. 2 A (human plasma [1]): 82.1 s and 80.7 s
- PTT (human plasma [1]; [7]): 64.62 s
- PT (human plasma [2]): 16.38 s
- PT(seconds) Exp. 1 A (human plasma [2]): 16.8 s and 16.2 s
- PT(seconds) Exp. 2 A (human plasma [2]): 17.7 s
- PT (human plasma [2]; [8]): 16.14 s

Compound: Na-phosphite [reference compound]
- PT (human plasma [2]; [10]): 12.9 s

Compound: Na Sulfide [reference compound]
- PTT (human plasma [1]; [9]): 78.50 s
- PT (human plasma [2]; [10]): 21.12 s

Compound: Na2SO4 [reference compound]
- PTT (human plasma [1]; [9]): 44.2 s
- PT (human plasma [2]; [10]): 13.6 s

Compound: Nc1ccccc1 [ANILINE]
- PTT REPLICATIONS 2 (human plasma [1]): 44.9
- PTT REPLICATIONS 1 (human plasma [1]; [3]): 45.4
- PTT REPLICATIONS 3 (human plasma [1]; [4]): 42.9
- PT REPLICATIONS 1 (human plasma [2]; [5]): 16.0
- PT REPLICATIONS 2 (human plasma [2]; [5]): 16.9
- PT REPLICATIONS 3 (human plasma [2]; [6]): 16.0

Compound: C=CCN [ALLYL AMINE HYDROCHLORIDE, reference compound]
- PTT 1 (human plasma [1]): 31.6
- PTT 3 (human plasma [1]; [11]): 32.4
- PTT 2 (human plasma [1]; [12]): 30.5
- PT 3 (human plasma [2]): 14.4
- PT 2 (human plasma [2]; [13]): 13.2
- PT 1 (human plasma [2]; [14]): 13.2

Compound: C=CCNCC=C [DIALLYL AMINE]
- PTT REPLICATIONS 2 (human plasma [1]): 39.6
- PTT REPLICATIONS 1 (human plasma [1]; [3]): 38.8
- PTT REPLICATIONS 3 (human plasma [1]; [4]): 39.1
- PTT (effect in words) (human plasma [1]; [15]): low activity
- PT REPLICATIONS 1 (human plasma [2]; [5]): 13.4
- PT REPLICATIONS 2 (human plasma [2]; [5]): 13.7
- PT REPLICATIONS 3 (human plasma [2]; [6]): 13.8
- PT (effect in words) (human plasma [2]; [15]): low activity

Compound: Sodium thiosulfate [SI6, reference compound]
- PTT (human plasma [1]): 46.2 s
- PT (human plasma [2]): 13.5 s

Compound: O=C(O)CC(S)C(=O)O (centres unmarked) [Example A2, Mercaptosuccinic acid, reference compound]
- PTT (human plasma [1]; [9]): 52.6 s
- PTT (human plasma [1]; [7]): 48.70 s
- PT (human plasma [2]): 14.7 s
- PT (human plasma [2]; [8]): 14.60 s

Compound: O=S([O-])S(=O)(=O)[O-].[Na+].[Na+] [Sodium Metabisulfite]
- PTT(seconds) Exp. 1 A (human plasma [1]): 76.9 s
- PTT (human plasma [1]; [9]): 77.75 s
- PT (human plasma [2]): 19.56 s
- PT(seconds) Exp. 1 A (human plasma [2]): 18.5 s
- PT(seconds) Exp. 2 A (human plasma [2]): 21.9 s

Compound: O=S(O)CO [SO2, Sodium formaldehyde sulfoxalate, reference compound]
- PTT sec (human plasma [1]; [9]): 45.1 (53.8) sec
- PTT (human plasma [1]; [7]): 49.22 s
- PT (human plasma [2]): 13.8 s
- PT (human plasma [2]; [8]): 14.94 s

Compound: CNC1CCCCC1 [N-METHYL CYCLOHEXYL AMINE]
- PTT REPLICATIONS 2 (human plasma [1]): 61.8
- PTT REPLICATIONS 1 (human plasma [1]; [3]): 60.6
- PTT REPLICATIONS 3 (human plasma [1]; [4]): 61.6
- PT REPLICATIONS 1 (human plasma [2]; [5]): 20.5
- PT REPLICATIONS 2 (human plasma [2]; [5]): 20.3
- PT REPLICATIONS 3 (human plasma [2]; [6]): 20.4

Compound: Cl.NC1CCCCC1 [CYCLOHEXYL AMINE HYDROCHLORIDE, reference compound]
- PTT 1 (human plasma [1]): 32.5
- PTT 3 (human plasma [1]; [11]): 34.3
- PTT 2 (human plasma [1]; [12]): 32.7
- PT 2 (human plasma [2]; [13]): 13.6
- PT 1 (human plasma [2]; [14]): 13.8
- PT 3 (human plasma [2]; [16]): 13.5

Compound: C=CCNCC=C.Cl [DIALLYL AMINE HYDROCHLORIDE, reference compound]
- PTT 1 (human plasma [1]): 30.5
- PTT 3 (human plasma [1]; [11]): 30.4
- PTT 2 (human plasma [1]; [12]): 30.7
- PT 2 (human plasma [2]; [13]): 13.1
- PT 1 (human plasma [2]; [14]): 12.8
- PT 3 (human plasma [2]; [16]): 13.5

Compound: CN1CCOCC1 [4-METHYL MORPHOLINE]
- PTT REPLICATIONS 1 (human plasma [1]): 63.5
- PTT REPLICATIONS 2 (human plasma [1]): 61.3
- PTT REPLICATIONS 3 (human plasma [1]): 60.6
- PT REPLICATIONS 1 (human plasma [2]): 21.3
- PT REPLICATIONS 2 (human plasma [2]): 21.5
- PT REPLICATIONS 3 (human plasma [2]): 20.4

Compound: C=CCN [ALLYL AMINE]
- PTT REPLICATIONS 2 (human plasma [1]): 46.9
- PTT REPLICATIONS 1 (human plasma [1]; [3]): 47.1
- PTT REPLICATIONS 3 (human plasma [1]; [4]): 44.9
- PT REPLICATIONS 1 (human plasma [2]; [5]): 16.1
- PT REPLICATIONS 2 (human plasma [2]; [5]): 16.0
- PT REPLICATIONS 3 (human plasma [2]; [6]): 15.6

Compound: CCN(CC)C(=S)S [SO4, Sodium diethyl dithiocarbamate, reference compound]
- PTT (human plasma [1]; [9]): 48.1 s
- PTT (human plasma [1]; coded agents 0.5mg/ml, mean values of 5 replications, control 43.38): 49.60 s
- PT (human plasma [2]): 13.6 s
- PT (human plasma [2]; [8]): 14.02 s

Compound: Cl.c1ccncc1 [PYRIDINE HYDROCHLORIDE (POWDER), PYRIDINE HYDROCHLORIDE, reference compound]
- PTT 1 (human plasma [1]; HYDROCHLORIDE): 30.5
- PTT 2 (human plasma [1]; HYDROCHLORIDE): 30.8
- PTT 3 (human plasma [1]; HYDROCHLORIDE): 31.1
- PT 1 (human plasma [2]; HYDROCHLORIDE): 12.6
- PT 2 (human plasma [2]; HYDROCHLORIDE): 12.5
- PT 3 (human plasma [2]; HYDROCHLORIDE): 13.8

Compound: Ammonium Sulfite
- PTT(seconds) Exp. 1 A (human plasma [1]): 56.5 s
- PTT (human plasma [1]; [9]): 58.80 s
- PTT(seconds) Exp. 2 A (human plasma [1]): 65.2 s
- PT (human plasma [2]): 16.08 s
- PT(seconds) Exp. 1 A (human plasma [2]): 14.7 s
- PT(seconds) Exp. 2 A (human plasma [2]): 16.9 s

Compound: CCCC[N+](CCCC)(CCCC)CCCC.[Br-] [Tetrabutyl Ammonium Bromide, reference compound]
- PTT (effect in words) (human plasma [1]): little or no effect
- PTT sec (human plasma [1]): 38.3 s
- PT (effect in words) (human plasma [2]): little or no effect
- PT sec. (human plasma [2]): 12.4 s

Compound: benzaldhyde [reference compound]
- PTT (effect in words) (human plasma [1]; in vitro, 0.5 mg/ml): minimal effect
- PT (effect in words) (human plasma [2]; in vitro, 0.5 mg/ml): minimal effect

Compound: 2-octanome [Example 2-octanome, reference compound]
- PTT (effect in words) (human plasma [1]; in vitro, 0.5 mg/ml): minimal effect
- PT (effect in words) (human plasma [2]; in vitro, 0.5 mg/ml): minimal effect

Compound: C1COCCN1 [MORPHOLINE]
- PTT REPLICATIONS 1 (human plasma [1]): 66.8
- PTT REPLICATIONS 2 (human plasma [1]): 61.8
- PTT REPLICATIONS 3 (human plasma [1]): 51.7
- PT REPLICATIONS 1 (human plasma [2]): 19.3
- PT REPLICATIONS 2 (human plasma [2]): 21.0
- PT REPLICATIONS 3 (human plasma [2]): 17.5
